Laboratory results: ChEMBL document CHEMBL1275505, “Smqnr, a new chromosome-carried quinolone resistance gene in Stenotrophomonas maltophilia” (2008)
≈ marks a conversion by molar mass, not a printed value.

Assays:
Assay type in all cases: functional
Escherichia coli [1] = assay: Antimicrobial activity against Escherichia coli TOP10 harboring pSmQnr7 carrying Smqnr gene by Etest
Escherichia coli [2] = assay: Antimicrobial activity against Escherichia coli TOP10 by Etest
Escherichia coli [3] = assay: Antimicrobial activity against Escherichia coli TOP10 harboring pSmQnr6 carrying Smqnr gene by Etest
Escherichia coli [4] = assay: Antimicrobial activity against Escherichia coli TOP10 harboring pSmQnr4 carrying Smqnr gene by Etest
Escherichia coli [5] = assay: Antimicrobial activity against Escherichia coli TOP10 harboring pSmQnr10 carrying Smqnr gene by Etest
Escherichia coli [6] = assay: Antimicrobial activity against Escherichia coli TOP10 harboring pSmQnr3 carrying Smqnr gene by Etest
Escherichia coli [7] = assay: Antimicrobial activity against Escherichia coli TOP10 harboring pSmQnr1 carrying Smqnr gene by Etest
Escherichia coli [8] = assay: Antimicrobial activity against Escherichia coli TOP10 harboring pSmQnr5 carrying Smqnr gene by Etest
Escherichia coli [9] = assay: Antimicrobial activity against Escherichia coli TOP10 harboring pSmQnr8 carrying Smqnr gene by Etest
Escherichia coli [10] = assay: Antimicrobial activity against Escherichia coli TOP10 harboring pSmQnr2 carrying Smqnr gene by Etest
Escherichia coli [11] = assay: Antimicrobial activity against Escherichia coli TOP10 harboring pSmQnr9 carrying Smqnr gene by Etest
Escherichia coli [12] = assay: Antimicrobial activity against Escherichia coli TOP10 harboring pSmQnr11 carrying Smqnr gene by Etest

Row | Compound | MIC (Escherichia coli [1]) | MIC (Escherichia coli [2]) | MIC (Escherichia coli [3]) | MIC (Escherichia coli [4]) | MIC (Escherichia coli [5]) | MIC (Escherichia coli [6]) | MIC (Escherichia coli [7]) | MIC (Escherichia coli [8]) | MIC (Escherichia coli [9]) | MIC (Escherichia coli [10]) | MIC (Escherichia coli [11]) | MIC (Escherichia coli [12])
1 | CCn1cc(C(=O)O)c(=O)c2ccc(C)nc21 [NALIDIXIC ACID] | 2 µg/mL (≈ 8.61 µM) | 1500 ng/mL (≈ 6.46 µM) | 2 µg/mL (≈ 8.61 µM) | 1500 ng/mL (≈ 6.46 µM) | 2 µg/mL (≈ 8.61 µM) | 1500 ng/mL (≈ 6.46 µM) | 3 µg/mL (≈ 12.9 µM) | 2 µg/mL (≈ 8.61 µM) | 2 µg/mL (≈ 8.61 µM) | 2 µg/mL (≈ 8.61 µM) | 1.5 µg/mL (≈ 6.46 µM) | 2 µg/mL (≈ 8.61 µM)
2 | CCn1cc(C(=O)O)c(=O)c2cc(F)c(N3CCNCC3)cc21 [NORFLOXACIN] | 0.047 µg/mL (≈ 0.147 µM) | 32 ng/mL (≈ 0.1 µM) | 0.064 µg/mL (≈ 0.2 µM) | 32 ng/mL (≈ 0.1 µM) | 0.032 µg/mL (≈ 0.1 µM) | 32 ng/mL (≈ 0.1 µM) | 0.064 µg/mL (≈ 0.2 µM) | 0.032 µg/mL (≈ 0.1 µM) | 0.047 µg/mL (≈ 0.147 µM) | 0.047 µg/mL (≈ 0.147 µM) | 0.032 µg/mL (≈ 0.1 µM) | 0.032 µg/mL (≈ 0.1 µM)
3 | COc1c(N2C[C@@H]3CCCN[C@@H]3C2)c(F)cc2c(=O)c(C(=O)O)cn(C3CC3)c12 [MOXIFLOXACIN] | 0.008 µg/mL (≈ 0.0199 µM) | < 2 ng/mL | 0.047 µg/mL (≈ 0.117 µM) | 2 ng/mL (≈ 0.00498 µM) | 0.004 µg/mL (≈ 0.00996 µM) | 2 ng/mL (≈ 0.00498 µM) | 0.012 µg/mL (≈ 0.0299 µM) | 0.003 µg/mL (≈ 0.00747 µM) | 0.002 µg/mL (≈ 0.00498 µM) |  |  | 0.002 µg/mL (≈ 0.00498 µM)
4 | C[C@H]1COc2c(N3CCN(C)CC3)c(F)cc3c(=O)c(C(=O)O)cn1c23.C[C@H]1COc2c(N3CCN(C)CC3)c(F)cc3c(=O)c(C(=O)O)cn1c23.O [LEVOFLOXACIN] | 0.023 µg/mL | 4 ng/mL | 0.023 µg/mL | 6 ng/mL | 0.023 µg/mL | 6 ng/mL | 0.023 µg/mL |  |  |  |  | 
5 | COc1c(N2CCNC(C)C2)c(F)cc2c(=O)c(C(=O)O)cn(C3CC3)c12 (stereo unspecified) [GATIFLOXACIN] | 0.023 µg/mL (≈ 0.0613 µM) | < 2 ng/mL | 0.064 µg/mL (≈ 0.17 µM) | 2 ng/mL (≈ 0.00533 µM) | 0.003 µg/mL (≈ 0.00799 µM) | 3 ng/mL (≈ 0.00799 µM) | 0.008 µg/mL (≈ 0.0213 µM) |  | 0.002 µg/mL (≈ 0.00533 µM) |  | 0.002 µg/mL (≈ 0.00533 µM) | 0.003 µg/mL (≈ 0.00799 µM)
6 | C[C@@H]1CN(c2c(F)c(N)c3c(=O)c(C(=O)O)cn(C4CC4)c3c2F)C[C@H](C)N1 [SPARFLOXACIN] | 0.008 µg/mL (≈ 0.0204 µM) | < 2 ng/mL | 0.125 µg/mL (≈ 0.319 µM) |  | 0.002 µg/mL (≈ 0.0051 µM) |  | 0.004 µg/mL (≈ 0.0102 µM) |  |  |  |  | 
